Results on 17 molecules are retold here after ChEMBL document CHEMBL3856187, “Cyclin Dependent Kinase 9 Inhibitors for Cancer Therapy” (J Med Chem, 2016).

Data set [1] is described as follows: Inhibition of M-phase starfish oocytes CDK1/cyclin B after 30 mins by [gamma-33P]ATP based scintillation counting analysis. Also noted: species or system Asteroidea.
In data set [2] the target is Cyclin-dependent kinase 4/cyclin D1 (Homo sapiens, UniProt P11802). In words: Inhibition of recombinant CDK4/cyclin D1 (unknown origin). The format is protein-complex assay.
Data set [3] has as its target T1, Cyclin-dependent kinase 1/cyclin B1 (Homo sapiens, UniProt P06493). The format is protein-complex assay.
Description: Inhibition of CDK1/cyclin B (unknown origin)
A further data set addresses CDK2/Cyclin A2 (Homo sapiens, UniProt P24941). In words: Inhibition of human full length C-terminal His6-tagged CDK2/N-terminal GST-tagged cyclin A using histone H1 as substrate after 10 mins by [gamma-32P]ATP based binding assay. The format is protein-complex assay.
For data set [4], the target named is T2, CDK9/cyclin T1 (Homo sapiens, UniProt P50750). In words: Inhibition of human His6-tagged CDK9/cyclin T1 expressed in baculovirus infected sf9 cells using GST-CTD as substrate after 10 mins in presence of [gamma-32P]ATP by SDS-PAGE analysis.
Data set [5] is described as follows: Cytotoxicity against human HeLa cells assessed as decrease in cell viability after 72 hrs by MTT assay. The format is toxicity, cell-based. (In general: Tetrazolium dyes change colour on reduction, which living cells bring about.)
Data set [6] addresses Cyclin-dependent kinase 7 (Homo sapiens, UniProt P50613). In words: Binding affinity to full length human CDK7 (1 to 344 residues) expressed in mammalian expression system by KINOMEscan competition assay.
The target in data set [7] is T3, Cyclin-dependent kinase 9 (Homo sapiens, UniProt P50750). The data set can be described thus: Binding affinity to full length human CDK9 (1 to 372 residues) expressed in bacterial expression system by KINOMEscan competition assay.
For data set [8], the target named is Cyclin-dependent kinase 2 (Homo sapiens, UniProt P24941). In words: Binding affinity to full length human CDK2 (1 to 298 residues) expressed in bacterial expression system by KINOMEscan competition assay.
Data set [9] has as its target T3, Cyclin-dependent kinase 9.
Description: Inhibition of CDK9 (unknown origin)
Data set [10] concerns the target Cyclin-dependent kinase 2/cyclin E1 (Homo sapiens, UniProt P24941). In words: Inhibition of human recombinant GST-tagged CDK2/cyclin E expressed in Sf9 insect cells using biotin-Ttds-YISPLKSPYKISEG as substrate preincubated for 15 mins followed by substrate addition measured after 25 mins by TR-FRET assay.
The target in the next data set is CDK2/Cyclin A1 (Homo sapiens, UniProt P24941). The data set can be described thus: Inhibition of recombinant human His/GST-tagged CDK2/Cyclin A expressed in baculovirus infected Sf9 cells using Histone H1 as substrate after 80 mins in presence of [33P]ATP by microbeta scintillation counting analysis.
Data set [11] has as its target T1, Cyclin-dependent kinase 1/cyclin B1. In words: Inhibition of recombinant human CDK1/cyclin B expressed in baculovirus infected Sf9 insect cells after 80 mins in presence of [33P]ATP by microbeta scintillation counting analysis.
Data set [12] concerns the target T2, CDK9/cyclin T1. In words: Inhibition of CDK9/cyclin T1 (unknown origin) using cdk7tide peptide as substrate. The format is protein-complex assay.
Another data set has as its target CDK3/Cyclin E (Homo sapiens, UniProt Q00526). In words: Inhibition of recombinant human CDK3/cyclin E expressed in baculovirus infected Sf9 insect cells after 80 mins in presence of [33P]ATP by microbeta scintillation counting analysis.
Data set [13] has as its target Cyclin-dependent kinase 5/CDK5 activator 1 (Homo sapiens, UniProt Q00535). In words: Inhibition of recombinant human His/GST-tagged CDK5/p35 expressed in baculovirus infected Sf9 insect cells using Rb-CTF as substrate after 80 mins in presence of [33P]ATP by microbeta scintillation counting analysis.
Data set [14] can be described thus: Antiproliferative activity against human HeLa cells after 4 days by crystal violet staining based assay. The data set is classed as functional, cell-based. To be noted: 96 h.
In a further data set the target is CDK8/Cyclin C (Homo sapiens, UniProt P49336). In words: Inhibition of CDK8/cyclin C (unknown origin) using RBER-CHKStide as substrate after 60 mins in presence of 33P-ATP by microbeta scintillation counting analysis. The data set is classed as protein-complex assay.
Another data set has as its target CDK7/Cyclin H/MNAT1 (Homo sapiens, UniProt P50613). In words: Inhibition of recombinant human full length C-terminal His6-tagged CDK7/cyclin H/N-terminal GST-tagged MAT1 expressed in baculovirus infected Sf21 insect cells using CDK7/9ptide as substrate after 60 mins in presence of 33P-ATP by microbeta scintillation counting analysis.
Data set [15] is described as follows: Inhibition of CDK6/cyclin D (unknown origin). Also noted: species or system Homo sapiens.
Data set [16] addresses CDK9/Cyclin K (Homo sapiens) (UniProt P50750+O75909). In words: Inhibition of human CDK9/cyclin K by radiometric assay relative to control. The data set is classed as protein-complex assay. Conditions: concentration not given here. Set-up: concentration or dose not given beside the values.
The target of data set [17] is CDK9/cyclin T1 (Homo sapiens) (UniProt O60563+P50750). In words: Inhibition of human CDK9/cyclin T1 by radiometric assay relative to control. The data set is classed as protein-complex assay. Also noted: concentration or dose not given beside the values. Conditions: concentration not given here.
The nature of data set [18]: Antiproliferative activity against human HeLa/MaTu/ADR cells after 4 days by crystal violet staining based assay. Conditions: 96 h. The format is functional, cell-based.
The nature of data set [19]: Antiproliferative activity against mouse B16F10 cells after 4 days by crystal violet staining based assay. Conditions: B16-F10, 96 h. The format is functional, cell-based.
The nature of data set [20]: Antiproliferative activity against human H460 cells after 4 days by crystal violet staining based assay. The format is functional, cell-based. Conditions: NCI-H460, 96 h.
Data set [21] concerns the target T2, CDK9/cyclin T1. In words: Inhibition of recombinant human full length C-terminal His6-tagged CDK9/cyclin T1 expressed in baculovirus infected Sf21 insect cells using 5TAMRA-cdk7tide as substrate after 4.5 hrs by IMAP assay.

T2 sequence (O60563 whole entry): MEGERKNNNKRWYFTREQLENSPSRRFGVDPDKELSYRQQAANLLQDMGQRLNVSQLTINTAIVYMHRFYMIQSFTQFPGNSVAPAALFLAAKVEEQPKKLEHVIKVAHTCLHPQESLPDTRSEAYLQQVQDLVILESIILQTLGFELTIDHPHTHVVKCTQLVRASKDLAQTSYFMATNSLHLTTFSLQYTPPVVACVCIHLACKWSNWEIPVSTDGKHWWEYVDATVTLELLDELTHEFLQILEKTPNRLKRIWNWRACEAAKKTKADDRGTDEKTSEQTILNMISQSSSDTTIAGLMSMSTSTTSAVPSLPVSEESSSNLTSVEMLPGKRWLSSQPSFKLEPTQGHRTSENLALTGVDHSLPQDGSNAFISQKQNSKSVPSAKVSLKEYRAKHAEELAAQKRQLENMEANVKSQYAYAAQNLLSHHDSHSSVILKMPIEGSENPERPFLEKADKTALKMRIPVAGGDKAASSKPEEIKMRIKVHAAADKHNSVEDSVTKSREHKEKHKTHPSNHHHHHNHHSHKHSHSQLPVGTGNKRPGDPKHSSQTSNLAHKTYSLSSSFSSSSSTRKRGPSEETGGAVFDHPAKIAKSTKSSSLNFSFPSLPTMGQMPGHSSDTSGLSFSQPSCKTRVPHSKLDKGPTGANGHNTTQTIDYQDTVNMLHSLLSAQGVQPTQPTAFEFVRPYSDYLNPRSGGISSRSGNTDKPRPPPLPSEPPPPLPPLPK
T2 sequence (P50750 whole entry): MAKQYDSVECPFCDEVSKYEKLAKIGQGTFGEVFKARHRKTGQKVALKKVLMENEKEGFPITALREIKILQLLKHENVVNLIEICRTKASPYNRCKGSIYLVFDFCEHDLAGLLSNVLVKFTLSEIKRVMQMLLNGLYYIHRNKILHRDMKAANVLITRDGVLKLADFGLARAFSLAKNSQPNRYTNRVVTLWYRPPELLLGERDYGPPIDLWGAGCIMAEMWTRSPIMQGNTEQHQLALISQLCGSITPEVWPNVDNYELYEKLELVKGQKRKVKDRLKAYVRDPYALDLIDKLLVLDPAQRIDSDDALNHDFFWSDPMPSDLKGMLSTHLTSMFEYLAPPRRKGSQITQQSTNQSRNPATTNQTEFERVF
T3 sequence (P50750 whole entry, the tested form may be a part): as the sequence (P50750 whole entry) above
T1 sequence (P06493 whole entry): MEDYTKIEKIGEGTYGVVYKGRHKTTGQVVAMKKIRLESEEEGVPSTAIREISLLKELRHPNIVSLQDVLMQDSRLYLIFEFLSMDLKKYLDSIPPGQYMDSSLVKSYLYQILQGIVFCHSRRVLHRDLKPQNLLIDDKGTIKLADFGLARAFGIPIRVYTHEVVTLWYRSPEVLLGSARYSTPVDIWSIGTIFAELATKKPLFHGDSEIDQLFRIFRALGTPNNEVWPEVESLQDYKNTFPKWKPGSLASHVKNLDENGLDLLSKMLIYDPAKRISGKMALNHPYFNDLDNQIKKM
T1 sequence (P14635 whole entry, further chain): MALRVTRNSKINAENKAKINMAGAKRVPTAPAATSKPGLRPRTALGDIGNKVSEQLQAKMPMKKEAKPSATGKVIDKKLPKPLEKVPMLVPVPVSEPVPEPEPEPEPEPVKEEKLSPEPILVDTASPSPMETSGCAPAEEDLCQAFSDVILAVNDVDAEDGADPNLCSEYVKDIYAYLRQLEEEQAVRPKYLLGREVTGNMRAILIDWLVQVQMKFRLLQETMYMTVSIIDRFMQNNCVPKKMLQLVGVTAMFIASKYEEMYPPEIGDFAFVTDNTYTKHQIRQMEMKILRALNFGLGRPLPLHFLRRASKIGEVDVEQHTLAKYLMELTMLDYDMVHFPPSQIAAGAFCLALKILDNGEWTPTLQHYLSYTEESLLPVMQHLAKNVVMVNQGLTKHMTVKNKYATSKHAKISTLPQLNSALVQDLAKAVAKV
Chain of CDK8/Cyclin C (P49336 whole entry): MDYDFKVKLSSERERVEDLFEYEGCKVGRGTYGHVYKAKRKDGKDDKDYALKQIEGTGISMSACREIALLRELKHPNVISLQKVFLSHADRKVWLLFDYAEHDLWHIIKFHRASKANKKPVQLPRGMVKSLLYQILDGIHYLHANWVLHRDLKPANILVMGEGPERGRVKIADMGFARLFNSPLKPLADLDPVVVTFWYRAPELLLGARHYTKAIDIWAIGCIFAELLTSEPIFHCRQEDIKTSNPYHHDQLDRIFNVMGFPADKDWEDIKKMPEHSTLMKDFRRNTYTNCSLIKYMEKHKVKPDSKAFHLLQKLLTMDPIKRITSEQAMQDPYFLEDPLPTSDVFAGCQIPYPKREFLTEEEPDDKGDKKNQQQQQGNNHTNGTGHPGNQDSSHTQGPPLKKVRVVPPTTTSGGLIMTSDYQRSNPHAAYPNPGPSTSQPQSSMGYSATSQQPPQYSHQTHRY
Chain of CDK8/Cyclin C (P24863 whole entry, further chain): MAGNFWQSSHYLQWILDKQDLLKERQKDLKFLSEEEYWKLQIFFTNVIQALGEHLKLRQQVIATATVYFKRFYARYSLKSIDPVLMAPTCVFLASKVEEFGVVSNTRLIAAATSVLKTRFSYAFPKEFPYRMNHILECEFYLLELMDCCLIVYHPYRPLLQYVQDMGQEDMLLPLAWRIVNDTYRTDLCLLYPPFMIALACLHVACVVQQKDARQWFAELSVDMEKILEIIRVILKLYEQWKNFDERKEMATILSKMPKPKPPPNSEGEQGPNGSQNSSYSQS
Chain of CDK7/Cyclin H/MNAT1 (P51946 whole entry): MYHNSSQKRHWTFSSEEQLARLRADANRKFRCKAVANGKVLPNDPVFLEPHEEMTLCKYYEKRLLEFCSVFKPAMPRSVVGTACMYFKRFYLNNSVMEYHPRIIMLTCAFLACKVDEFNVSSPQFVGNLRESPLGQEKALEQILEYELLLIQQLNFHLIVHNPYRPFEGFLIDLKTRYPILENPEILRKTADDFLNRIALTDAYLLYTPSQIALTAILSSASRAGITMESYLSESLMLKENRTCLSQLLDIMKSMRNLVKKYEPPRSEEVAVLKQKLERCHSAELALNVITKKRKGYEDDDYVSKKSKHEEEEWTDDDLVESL
Chain of CDK7/Cyclin H/MNAT1 (P50613 whole entry): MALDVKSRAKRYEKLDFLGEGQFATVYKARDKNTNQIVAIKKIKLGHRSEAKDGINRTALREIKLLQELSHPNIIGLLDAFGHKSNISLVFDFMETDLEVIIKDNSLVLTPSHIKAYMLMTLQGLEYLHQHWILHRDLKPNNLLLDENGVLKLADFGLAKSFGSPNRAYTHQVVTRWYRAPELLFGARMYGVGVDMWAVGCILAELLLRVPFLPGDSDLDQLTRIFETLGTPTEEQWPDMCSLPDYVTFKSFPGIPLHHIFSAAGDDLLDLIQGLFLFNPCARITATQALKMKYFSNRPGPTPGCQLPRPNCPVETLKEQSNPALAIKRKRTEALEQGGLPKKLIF
Chain of CDK7/Cyclin H/MNAT1 (P51948 whole entry, further chain): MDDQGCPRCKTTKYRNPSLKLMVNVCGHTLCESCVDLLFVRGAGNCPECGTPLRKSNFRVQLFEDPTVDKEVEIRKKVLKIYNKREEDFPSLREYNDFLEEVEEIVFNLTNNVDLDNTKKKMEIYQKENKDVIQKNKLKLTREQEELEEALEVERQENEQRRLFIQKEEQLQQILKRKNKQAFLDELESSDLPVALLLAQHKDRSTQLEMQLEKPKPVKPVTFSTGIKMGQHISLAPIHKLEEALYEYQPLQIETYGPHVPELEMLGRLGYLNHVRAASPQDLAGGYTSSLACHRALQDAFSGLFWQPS
Chain of Cyclin-dependent kinase 4/cyclin D1 (P11802 whole entry): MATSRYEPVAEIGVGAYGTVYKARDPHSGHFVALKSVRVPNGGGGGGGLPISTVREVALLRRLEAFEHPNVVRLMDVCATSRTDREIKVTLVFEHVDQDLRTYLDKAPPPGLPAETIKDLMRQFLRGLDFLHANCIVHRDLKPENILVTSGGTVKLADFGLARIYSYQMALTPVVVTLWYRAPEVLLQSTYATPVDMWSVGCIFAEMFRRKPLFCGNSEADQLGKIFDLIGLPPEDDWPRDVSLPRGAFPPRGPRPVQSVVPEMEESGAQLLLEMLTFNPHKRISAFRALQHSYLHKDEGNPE
Chain of Cyclin-dependent kinase 4/cyclin D1 (P24385 whole entry, further chain): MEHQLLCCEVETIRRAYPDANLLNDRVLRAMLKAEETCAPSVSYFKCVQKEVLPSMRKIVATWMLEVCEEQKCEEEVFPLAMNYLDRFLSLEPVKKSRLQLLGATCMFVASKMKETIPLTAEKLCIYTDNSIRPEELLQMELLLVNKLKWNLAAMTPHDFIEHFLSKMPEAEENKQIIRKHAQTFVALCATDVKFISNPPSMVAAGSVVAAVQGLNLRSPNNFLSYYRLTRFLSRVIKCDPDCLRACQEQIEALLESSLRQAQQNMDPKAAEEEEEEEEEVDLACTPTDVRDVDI
Chain of Cyclin-dependent kinase 7 (P50613 whole entry, the tested form may be a part): as the sequence (P50613 whole entry) above
Chain of Cyclin-dependent kinase 5/CDK5 activator 1 (Q00535 whole entry): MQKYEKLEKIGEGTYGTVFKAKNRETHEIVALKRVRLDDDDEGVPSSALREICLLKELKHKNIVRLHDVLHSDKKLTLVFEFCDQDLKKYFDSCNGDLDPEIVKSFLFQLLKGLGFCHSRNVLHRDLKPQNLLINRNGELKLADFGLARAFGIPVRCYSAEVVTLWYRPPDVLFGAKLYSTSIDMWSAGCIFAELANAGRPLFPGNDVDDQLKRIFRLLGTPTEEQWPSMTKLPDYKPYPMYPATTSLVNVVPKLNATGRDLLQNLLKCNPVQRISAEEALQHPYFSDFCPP
Chain of Cyclin-dependent kinase 5/CDK5 activator 1 (Q15078 whole entry, further chain): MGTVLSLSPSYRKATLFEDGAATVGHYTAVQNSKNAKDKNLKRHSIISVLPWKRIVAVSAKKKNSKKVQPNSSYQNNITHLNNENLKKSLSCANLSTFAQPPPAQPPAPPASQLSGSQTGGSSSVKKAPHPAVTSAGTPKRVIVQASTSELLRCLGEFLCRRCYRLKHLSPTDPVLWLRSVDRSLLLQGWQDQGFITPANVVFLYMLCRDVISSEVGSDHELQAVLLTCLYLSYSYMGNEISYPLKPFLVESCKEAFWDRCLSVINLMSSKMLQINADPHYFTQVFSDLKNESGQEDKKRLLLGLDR

As usually defined, the IC50 is the concentration that inhibits the measured activity by half. For the molecule `COc1ccnc2[nH]cc(-c3ccnc(N)n3)c12` [MERIOLIN 3], it took 170 nM to reach half-maximal inhibition in data set [1] (IC50).
Consider `CN1CC[C@@H](c2c(O)cc(O)c3c(=O)cc(-c4ccc(C(F)(F)F)cc4Cl)oc23)[C@@H]1CO` [VORUCICLIB], for which the IC50 in data set [2] amounted to 90 nM; in data set [3], 25 nM.
As usually defined, the CC50 is the concentration giving 50% cytotoxicity. Regarding `CN1CC[C@H](c2c(O)cc(O)c3c(=O)cc(-c4ccccc4F)oc23)[C@H](O)C1`, the results for the IC50 on CDK2/Cyclin A2 and on CDK9/cyclin T1 [4] were 357 nM and 2.8 nM, respectively. The cytotoxic concentration (CC50) at 72 h in data set [5] is 274 nM.
As a reminder, the Kd is a measure of binding affinity in units of concentration. Take `Cc1ccc([N+](=O)[O-])cc1S(=O)(=O)N(C)/N=C/c1cnc2ccc(Br)cn12`: the values for the Kd in data set [6], in data set [7] and in data set [8] were 2.5 nM, 4.1 nM and 540 nM, respectively. Also, the midpoint of inhibition in data set [9], the IC50, lay at 1.4 nM.
Regarding `COc1cc(F)ccc1-c1ncnc(Nc2cccc(CS(=O)(=NC#N)C3CC3)c2)n1` (stereo not drawn), the half-inhibitory concentration (IC50) in [10] was determined as 300 nM.
Turning to `COc1cc(F)ccc1-c1ccnc(NC(=O)[C@@H]2CC[C@H](NC(C)=O)C2)c1`, the IC50 was 913 to 1880 nM on CDK2/Cyclin A1; 913 to 1880 nM in [11]; 10 nM against CDK9/cyclin T1 [12]; 913 to 1880 nM at CDK3/Cyclin E; 913 to 1880 nM in data set [13].
Regarding `CN1CC[C@H](c2c(O)cc(O)c3c(=O)cc(-c4ccc(Br)cc4)oc23)[C@H](O)C1`, the IC50 on CDK2/Cyclin A2 was found to be 224 nM; on CDK9/cyclin T1 [4] it was 5.5 nM. The CC50 at 72 h in [5] stood at 280 nM.
`CS(=O)(=O)Cc1cccc(Nc2ncnc(-c3ccc(F)cc3OCc3cccc(C(F)(F)F)c3)n2)c1` gave an IC50 in data set [14] of 1300 nM.
`CC(C)c1c2cc(-c3ccnc(N[C@H]4CC[C@H](NC5CCOCC5)CC4)n3)ccc2nn1C`: the figures for the half-maximal inhibitory concentration (IC50) on CDK8/Cyclin C and on CDK7/Cyclin H/MNAT1 were 16 nM and 246 nM, respectively.
Molecule `CC(C)(C)c1cnc(CSc2cnc(NC(=O)C3CCNCC3)s2)o1` [BMS-387032] gave an IC50 in data set [15] greater than 1000 nM.
As to `CN1CC[C@H](c2c(O)cc(O)c3c(=O)cc(-c4ccc(F)cc4)oc23)[C@H](O)C1`, the IC50 was determined as 129 nM on CDK2/Cyclin A2 and 2.1 nM on CDK9/cyclin T1 [4]. For the same molecule, in [5], the CC50 at 72 h was 200 nM.
One may read the inhibition as the drop in the measured response relative to a control, in per cent. Regarding `CN[C@H]1C[C@@H]2O[C@@](C)(C3c4ccccc4-c4c5c(c6c(c43)C2c2ccccc2-6)C(=O)NC5=O)[C@H]1OC` (stereo partly drawn), the inhibition in [16] and in [17] was greater than 75% throughout.
Regarding `CS(=O)(=O)Cc1cccc(Nc2ncnc(-c3ccc(F)cc3OCc3ccccc3)n2)c1`, the half-inhibitory concentration (IC50) in [18] stood at 100 nM; in data set [14], 100 nM; in data set [19], 130 nM; in data set [20] it was 150 nM.
As for `O=C1Nc2ccc3ncsc3c2/C1=C/c1c[nH]cn1`, the inhibition in data set [16] and in [17] was greater than 75% each time.
As to `Nc1nccc(-c2c[nH]c3nccc(O)c23)n1` [MERIOLIN 2], in [1], the IC50 worked out at 57 nM.
On to `Clc1cnc(NC2CCCC2)cc1-c1cnc(N2CCOCC2)c(NCC2CCOCC2)c1`, for which the concentration for half-maximal inhibition (IC50) at CDK9/cyclin T1 [21] amounted to 3440 nM.
Regarding `O=C1NC(=O)c2c1c1c3c4c2-c2ccccc2C4C2CCC(O2)C3c2ccccc2-1` (stereo not drawn), the inhibition in [16] and in data set [17] was greater than 75% throughout.
